Measurements as given in publication PMC10882719 (Frontiers in Neuroscience, 2024).
Like-named read-outs stand apart in the source and are kept apart here.

Legend:
[1] = system: myelin basic protein (MBP); experiment: Immunohistochemistry of myelin basic protein in brain; format: in vivo, rat; settings: 10 mg/kg IP, 24 h, vs vehicle
Description: The in-life portion of the study was conducted at WuXi Apptec (Cranbury, NJ). Sectioning and staining of brains took place at Neuroscience Associates (NSA, Knoxville, TN). […] Brains were post-fixed in PFA before shipment to NSA for processing and staining. Hemisected brains were mounted, sectioned and stained using standard protocols with myelin-basic protein primary antibody (MBP SMI-99, 1:5000, Biolegend, San Diego, CA) and anti-mouse biotinylated secondary antibody (BA-2001, Vector Laboratories, Newark, CA). Slides were imaged using a Huron Digital Pathology TissueScope LE120 whole slide scanning system. 20x objective was used with a 0.4um/pixel resolution.

168 GPCRs [2] = biological target: T1, 168 GPCRs (Homo sapiens, UniProt Q99788); format: cell-based
T1 construct: host or cells: PathHunter cell lines
T1 sequence (Q99788 1-373): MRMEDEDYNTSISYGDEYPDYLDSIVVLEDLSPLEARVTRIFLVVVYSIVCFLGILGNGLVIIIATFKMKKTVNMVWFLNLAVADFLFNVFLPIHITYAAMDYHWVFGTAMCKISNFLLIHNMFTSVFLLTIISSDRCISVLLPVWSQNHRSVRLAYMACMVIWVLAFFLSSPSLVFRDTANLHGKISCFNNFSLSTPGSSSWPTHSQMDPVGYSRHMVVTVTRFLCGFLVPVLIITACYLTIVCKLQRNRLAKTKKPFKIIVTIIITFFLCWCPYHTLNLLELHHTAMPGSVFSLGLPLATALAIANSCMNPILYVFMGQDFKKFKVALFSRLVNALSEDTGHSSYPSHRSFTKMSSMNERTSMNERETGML

168 GPCRs [3] = format: cell-based
168 GPCRs [4] = biological target: T2, 168 GPCRs (Homo sapiens, UniProt P08912); format: cell-based
T2 construct: host or cells: PathHunter cell lines
T2 sequence (P08912 1-532): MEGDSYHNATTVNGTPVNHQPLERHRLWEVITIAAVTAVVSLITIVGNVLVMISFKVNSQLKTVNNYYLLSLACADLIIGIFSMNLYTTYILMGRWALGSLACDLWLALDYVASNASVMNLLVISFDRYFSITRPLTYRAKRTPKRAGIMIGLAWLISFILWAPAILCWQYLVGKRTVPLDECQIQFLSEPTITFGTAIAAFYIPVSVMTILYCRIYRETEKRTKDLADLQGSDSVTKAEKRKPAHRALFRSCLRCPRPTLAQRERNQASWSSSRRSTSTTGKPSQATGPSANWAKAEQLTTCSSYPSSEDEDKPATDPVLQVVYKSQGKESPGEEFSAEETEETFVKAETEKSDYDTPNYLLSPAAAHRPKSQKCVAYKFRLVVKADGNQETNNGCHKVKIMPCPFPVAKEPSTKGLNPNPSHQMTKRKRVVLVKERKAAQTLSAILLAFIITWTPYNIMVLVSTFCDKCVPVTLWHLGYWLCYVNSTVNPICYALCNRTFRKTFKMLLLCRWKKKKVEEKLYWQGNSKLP

168 GPCRs [5] = biological target: T3, 168 GPCRs (Homo sapiens, UniProt P25116); format: cell-based; settings: F2R
T3 construct: host or cells: PathHunter cell lines
T3 sequence (P25116 22-425): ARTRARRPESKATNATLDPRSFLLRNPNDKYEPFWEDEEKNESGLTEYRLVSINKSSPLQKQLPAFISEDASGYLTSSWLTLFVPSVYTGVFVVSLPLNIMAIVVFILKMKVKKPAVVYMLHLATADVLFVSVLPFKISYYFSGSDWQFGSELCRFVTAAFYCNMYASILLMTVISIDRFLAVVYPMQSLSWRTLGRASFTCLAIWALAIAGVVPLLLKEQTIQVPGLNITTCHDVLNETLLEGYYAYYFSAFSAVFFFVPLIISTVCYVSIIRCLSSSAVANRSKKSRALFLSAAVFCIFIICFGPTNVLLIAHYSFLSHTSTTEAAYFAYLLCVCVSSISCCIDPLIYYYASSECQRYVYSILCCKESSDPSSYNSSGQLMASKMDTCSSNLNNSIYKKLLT

168 GPCRs [6] = biological target: T4, 168 GPCRs (Homo sapiens, UniProt P33032); format: cell-based; settings: MC5R
T4 construct: host or cells: PathHunter cell lines
T4 sequence (P33032 whole entry): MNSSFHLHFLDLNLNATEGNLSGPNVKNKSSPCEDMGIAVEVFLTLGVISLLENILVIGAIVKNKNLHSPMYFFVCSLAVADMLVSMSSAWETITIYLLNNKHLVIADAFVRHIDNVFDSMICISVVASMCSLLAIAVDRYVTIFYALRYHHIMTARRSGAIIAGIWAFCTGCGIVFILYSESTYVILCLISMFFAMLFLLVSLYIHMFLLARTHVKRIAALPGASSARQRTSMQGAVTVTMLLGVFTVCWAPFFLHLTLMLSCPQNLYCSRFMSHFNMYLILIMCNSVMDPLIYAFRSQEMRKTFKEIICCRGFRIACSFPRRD

168 GPCRs [7] = biological target: T5, 168 GPCRs (Homo sapiens, UniProt P28222); format: cell-based; settings: HTR1B
T5 construct: host or cells: PathHunter cell lines
T5 sequence (P28222 whole entry): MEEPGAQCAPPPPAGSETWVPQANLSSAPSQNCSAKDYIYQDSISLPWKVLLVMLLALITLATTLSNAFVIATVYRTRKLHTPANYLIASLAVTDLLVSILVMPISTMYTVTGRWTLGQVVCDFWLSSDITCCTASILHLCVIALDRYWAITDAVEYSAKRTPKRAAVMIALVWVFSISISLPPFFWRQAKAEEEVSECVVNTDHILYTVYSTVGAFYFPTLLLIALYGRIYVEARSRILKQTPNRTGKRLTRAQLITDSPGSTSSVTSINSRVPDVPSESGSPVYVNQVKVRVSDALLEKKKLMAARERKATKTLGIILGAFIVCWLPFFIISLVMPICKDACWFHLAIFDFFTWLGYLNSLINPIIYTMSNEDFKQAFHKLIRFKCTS

SMILES	MBP expression, basolateral nucleus of the amygdala [1]	MBP expression, central nucleus of the amygdala [1]	MBP expression, cortex (control region) [1]	% Agonist Activity (168 GPCRs [2]; CMKLR1, 1 uM)	% Antagonist Activity (168 GPCRs [2]; CMKLR1, 1 uM)	% Agonist Activity (168 GPCRs [2]; CMKLR1, 10 uM)	% Antagonist Activity (168 GPCRs [2]; CMKLR1, 10 uM)	% Agonist Activity (168 GPCRs [3]; DRD2S, 1 uM)	% Antagonist Activity (168 GPCRs [3]; DRD2S, 1 uM)	% Agonist Activity (168 GPCRs [3]; DRD2S, 10 uM)	% Antagonist Activity (168 GPCRs [3]; DRD2S, 10 uM)	% Agonist Activity (168 GPCRs [3]; NPSR1B, Conc 1 uM)	% Antagonist Activity (168 GPCRs [3]; NPSR1B, Conc 1 uM)	% Agonist Activity (168 GPCRs [3]; NPSR1B, Conc 10 uM)	% Antagonist Activity (168 GPCRs [3]; NPSR1B, Conc 10 uM)	% Agonist Activity (168 GPCRs [4]; CHRM5, 1 uM)	% Antagonist Activity (168 GPCRs [4]; CHRM5, 1 uM)	% Agonist Activity (168 GPCRs [4]; CHRM5, 10 uM)	% Antagonist Activity (168 GPCRs [4]; CHRM5, 10 uM)	% Agonist Activity (168 GPCRs [5]; 1 uM)	also measured
CNC(C)C(=O)c1ccc2c(c1)OCO2 (stereo not shown) [methylone]	significant reduction	significant reduction	No change	-0.2%	-0.2%	-0.3%	-5.6%	0%	3.6%	0.6%	-11.6%	-1.3%	-10.6%	4.8%	-7.6%	7.2%	-8%	8.7%	-7.6%	-2.5%	Agonist activity at any of 168 GPCRs (168 GPCRs [3]; 1 or 10 μM, threshold 30% activity): no significant agonist activity; Antagonist activity at any GPCR (168 GPCRs [3]; 1 or 10 μM, threshold 50% inhibition): no significant antagonist activity; % Antagonist Activity (168 GPCRs [5]; 1 uM): -11.6%; % Agonist Activity (168 GPCRs [5]; 10 uM): 0.2%; % Antagonist Activity (168 GPCRs [5]; 10 uM): -11.4%; % Agonist Activity (168 GPCRs [6]; 1 uM): -7.9%; % Antagonist Activity (168 GPCRs [6]; 1 uM): 1.7%; % Agonist Activity (168 GPCRs [6]; 10 uM): -8.9%; % Antagonist Activity (168 GPCRs [6]; 10 uM): -6.3%; % Agonist Activity (168 GPCRs [7]; 1 uM): 3.3%; % Antagonist Activity (168 GPCRs [7]; 1 uM): -9.5%; % Agonist Activity (168 GPCRs [7]; 10 uM): 6.7%; % Antagonist Activity (168 GPCRs [7]; 10 uM): -6.2%
CNC(C)Cc1ccc2c(c1)OCO2 (stereo not shown) [MDMA, 3,4-Methylenedioxy methamphetamine, reference compound]	significant reduction	significant reduction	No change	-0.3%	0.4%	-0.4%	1.1%	1.6%	5.8%	1.9%	14.7%	-3.8%	4.3%	-5.1%	5%	8.8%	11.2%	8.3%	14.4%	-0.7%	% Antagonist Activity (168 GPCRs [5]; 1 uM): 1.2%; % Agonist Activity (168 GPCRs [5]; 10 uM): -1.2%; % Antagonist Activity (168 GPCRs [5]; 10 uM): 5.9%; % Agonist Activity (168 GPCRs [6]; 1 uM): 2.5%; % Antagonist Activity (168 GPCRs [6]; 1 uM): -0.9%; % Agonist Activity (168 GPCRs [6]; 10 uM): 1%; % Antagonist Activity (168 GPCRs [6]; 10 uM): 7.1%; % Agonist Activity (168 GPCRs [7]; 1 uM): 8.5%; % Antagonist Activity (168 GPCRs [7]; 1 uM): -7.3%; % Agonist Activity (168 GPCRs [7]; 10 uM): 10.4%; % Antagonist Activity (168 GPCRs [7]; 10 uM): -0.1%
